# Measured values reported in ChEMBL document CHEMBL1153926, “Evaluation of synthetic sphingolipid analogs as ligands for peroxisome proliferator-activated receptors” (Bioorg Med Chem Lett, 2009).
# Calls of active or inactive are those of the source. The rule behind the calls is not given here.
# Experiments:
# Type in all cases: cell-based
# [1] = target: T1, Peroxisome proliferator-activated receptor gamma (Mus musculus) (UniProt P37238); assay: Transactivation of mouse recombinant PPARgamma expressed in mouse NIH3T3 cells by PPRE activation based dual luciferase reporter gene assay relative to control
# T1 sequence (whole entry): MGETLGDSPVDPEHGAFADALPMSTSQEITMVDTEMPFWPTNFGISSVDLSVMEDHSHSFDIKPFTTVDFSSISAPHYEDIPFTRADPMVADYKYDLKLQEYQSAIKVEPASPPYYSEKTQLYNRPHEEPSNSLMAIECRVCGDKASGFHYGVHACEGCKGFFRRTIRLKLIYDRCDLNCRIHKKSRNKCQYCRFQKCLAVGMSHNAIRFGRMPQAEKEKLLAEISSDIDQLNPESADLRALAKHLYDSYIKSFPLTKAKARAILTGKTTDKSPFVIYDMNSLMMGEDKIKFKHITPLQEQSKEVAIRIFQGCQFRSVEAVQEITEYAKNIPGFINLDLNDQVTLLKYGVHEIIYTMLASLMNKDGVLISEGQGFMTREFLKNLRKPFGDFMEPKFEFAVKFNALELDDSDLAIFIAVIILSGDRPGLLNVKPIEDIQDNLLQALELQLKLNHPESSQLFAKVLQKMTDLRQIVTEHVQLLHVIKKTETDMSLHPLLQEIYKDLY
# [2] = target: T2, Peroxisome proliferator-activated receptor alpha (Mus musculus) (UniProt P23204); assay: Transactivation of mouse recombinant PPARalpha expressed in mouse NIH3T3 cells at 5 uM by PPRE activation based dual luciferase reporter gene assay relative to control
# T2 sequence (whole entry): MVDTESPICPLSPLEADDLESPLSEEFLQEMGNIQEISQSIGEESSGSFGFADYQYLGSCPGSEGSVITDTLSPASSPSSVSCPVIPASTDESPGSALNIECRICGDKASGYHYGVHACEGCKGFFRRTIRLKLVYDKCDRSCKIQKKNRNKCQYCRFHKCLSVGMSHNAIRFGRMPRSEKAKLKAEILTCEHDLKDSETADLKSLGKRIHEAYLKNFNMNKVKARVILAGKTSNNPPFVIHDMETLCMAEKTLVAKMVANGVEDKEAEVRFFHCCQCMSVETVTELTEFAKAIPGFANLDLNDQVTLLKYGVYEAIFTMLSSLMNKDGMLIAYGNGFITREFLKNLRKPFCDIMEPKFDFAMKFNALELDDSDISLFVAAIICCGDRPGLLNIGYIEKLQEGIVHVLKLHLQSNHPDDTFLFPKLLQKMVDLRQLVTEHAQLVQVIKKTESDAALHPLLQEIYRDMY
# [3] = target: T2, Peroxisome proliferator-activated receptor alpha (Mus musculus); assay: Transactivation of mouse recombinant PPARalpha expressed in mouse NIH3T3 cells at 0.1 uM to 10 uM by PPRE activation based dual luciferase reporter gene assay relative to control
# [4] = target: T3, Peroxisome proliferator-activated receptor delta (Mus musculus) (UniProt P35396); assay: Transactivation of mouse recombinant PPARbeta expressed in mouse NIH3T3 cells by PPRE activation based dual luciferase reporter gene assay relative to control
# T3 sequence (whole entry): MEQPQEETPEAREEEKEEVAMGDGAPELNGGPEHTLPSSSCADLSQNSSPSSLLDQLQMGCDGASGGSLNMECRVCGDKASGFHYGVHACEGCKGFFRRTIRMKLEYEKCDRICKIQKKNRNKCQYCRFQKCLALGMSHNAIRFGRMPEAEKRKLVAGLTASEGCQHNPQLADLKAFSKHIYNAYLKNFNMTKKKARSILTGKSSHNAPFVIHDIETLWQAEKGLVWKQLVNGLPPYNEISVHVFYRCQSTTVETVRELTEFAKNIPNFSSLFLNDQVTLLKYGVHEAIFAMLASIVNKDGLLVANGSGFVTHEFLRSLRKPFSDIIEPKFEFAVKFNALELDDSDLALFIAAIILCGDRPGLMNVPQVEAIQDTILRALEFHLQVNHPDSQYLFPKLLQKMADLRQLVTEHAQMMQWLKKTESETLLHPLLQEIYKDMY
Structure (SMILES),Activity [1],Activity [2],Activity [3],Activity [4]
CC1(COc2ccc(CC3SC(=O)NC3=O)cc2)CCCCC1 (centres undefined),Active,,,
CCCCCCCCCCCCCC[C@@H](O)[C@@H](O)[C@@H](CO)NC(=O)CBr,Active,,,
CCCCCCCCCCCCCC[C@H](O)[C@@H](O)[C@H](CO)NC(=O)[C@H](Cc1ccccc1)NC(=O)OC(C)(C)C,Active,Active,Active,Dose-dependent effect
Cc1cccc(Nc2cc(Cl)nc(SCC(=O)O)n2)c1C,,,Active,
CCCCCCCCCCCCCC[C@@H](O)[C@H](O)[C@H](CO)NC(=O)CCCCCCCCCCCCC,Active,Active,,Dose-dependent effect
CCCCCCCCCCCCCC[C@@H](O)[C@H](O)[C@@H](CO)NC(=O)[C@H](Cc1ccccc1)NC(=O)OC(C)(C)C,Active,Active,Active,Dose-dependent effect
CCCCCCCCCCCCCC[C@H](O)[C@H](O)[C@H](CO)NC(=O)CCCCCCCCCCCCC,Active,Active,,Dose-dependent effect
CCCCCCCCCCCCCC[C@H](O)[C@H](O)[C@@H](CO)NC(=O)[C@H](Cc1ccccc1)NC(=O)OC(C)(C)C,Active,Active,Active,Dose-dependent effect
CCCCCCCCCCCCCC[C@@H](O)[C@@H](O)[C@@H](CO)NC(=O)CCCCCCCCCCCCC,Active,Active,,Dose-dependent effect
